Test results as given in ChEMBL document CHEMBL4627350, “Drug repurposing and rediscovery: Design, synthesis and preliminary biological evaluation of 1-arylamino-3-aryloxypropan-2-ols as anti-melanoma agents” (Bioorg Med Chem, 2020).
Active and inactive are the calls of the source. The calls are words filed in the database; no cut-off is given here.

Key:
[1] = system: SK-MEL-5; test: Antiproliferative activity against human SK-MEL-5 cells assessed as cell growth inhibition incubated for 48 hrs by MTT assay; format: functional, cell-based; details: SK-MEL-5, 48 h
[2] = system: SK-MEL-28; test: Antiproliferative activity against human SK-MEL-28 cells assessed as cell growth inhibition incubated for 48 hrs by MTT assay; format: functional, cell-based; details: SK-MEL-28, 48 h
[3] = system: A-375; test: Antiproliferative activity against human A375 cells assessed as cell growth inhibition incubated for 48 hrs by MTT assay; format: functional, cell-based; details: A-375, 48 h
[4] = system: SK-MEL-28; test: Inhibition of colony formation in human SK-MEL-28 cells at 5 to 100 uM supplemented with fresh medium containing compound every 72 hrs for 2 weeks by crystal violet staining based assay; format: functional, cell-based
[5] = system: SK-MEL-28; test: Cell cycle arrest in human SK-MEL-28 cells assessed as accumulation at G2/M phase at 5 nM after 24 hrs by […] dye staining based fluorescence assay; format: functional
[6] = system: SK-MEL-28; test: Antimigratory activity against human SK-MEL-28 cells assessed as reduction in cell migration at 1 uM measured after 48 hrs by wound healing assay; format: functional, cell-based
[7] = system: SK-MEL-5; test: Potency index, ratio of carvedilol IC50 to test compound IC50 for antiproliferative activity against human SK-MEL-5 cells; format: functional
[8] = system: SK-MEL-28; test: Potency index, ratio of carvedilol IC50 to test compound IC50 for antiproliferative activity against human SK-MEL-28 cells; format: functional
[9] = system: A-375; test: Potency index, ratio of carvedilol IC50 to test compound IC50 for antiproliferative activity against human A375 cells; format: functional
[10] = system: SK-MEL-28; test: Cell cycle arrest in human SK-MEL-28 cells assessed as accumulation at G2/M phase after 24 hrs by […] dye staining based fluorescence assay; format: functional
[11] = system: SK-MEL-28; test: Inhibition of colony formation in human SK-MEL-28 cells at 2 uM supplemented with fresh medium containing compound every 72 hrs for 2 weeks by crystal violet staining based assay; format: functional
[12] = system: SK-MEL-28; test: Induction of apoptosis in human SK-MEL-28 cells incubated for 24 hrs by Annexin V-FITC/propidium iodide staining based flow cytometric analysis; format: functional, cell-based
[13] = target: Tubulin (Homo sapiens) (UniProt P68371+Q9H4B7+P0DPH7+P68366+Q13509+Q71U36+P04350+Q3ZCM7+P07437+P68363+Q9BQE3+Q6PEY2+Q13885+Q9BVA1+Q9BUF5); test: Inhibition of tubulin in human SK-MEL-28 cells assessed as disruption of microtubule network at 1 to 2 uM by Alexa Fluor 488 and DAPI staining based fluorescence microscopic method; format: cell-based
[14] = system: SK-MEL-5; test: Antiproliferative activity against human SK-MEL-5 cells assessed as cell growth inhibition at 100 uM incubated for 48 hrs by MTT assay relative to control; format: functional; details: SK-MEL-5, 48 h
[15] = system: SK-MEL-28; test: Antiproliferative activity against human SK-MEL-28 cells assessed as cell growth inhibition at 100 uM measured after 48 hrs by MTT assay relative to control; format: functional; details: SK-MEL-28, 48 h
[16] = system: A-375; test: Antiproliferative activity against human A375 cells assessed as cell growth inhibition at 100 uM measured after 48 hrs by MTT assay relative to control; format: functional; details: A-375, 48 h

SMILES	IC50 [1]	IC50 [2]	IC50 [3]	other results
COc1ccccc1OCCNC[C@H](O)COc1cccc2[nH]c3ccccc3c12	7.04 µM	10.5 µM	14.7 µM	
COc1ccccc1OCCNCCCOc1cccc2[nH]c3ccccc3c12	6.18 µM	6.66 µM	6.88 µM	
c1ccc(Nc2cccc(OCCCNCc3ccc(-c4ccccc4)cc3)c2)cc1	4.72 µM	3.8 µM	2.31 µM	
c1ccc(N2CCN(CCCOc3cccc4[nH]c5ccccc5c34)CC2)cc1	36.9 µM	19.2 µM	22.6 µM	
Cc1ccc2cccc(NCCCOc3cccc4[nH]c5ccccc5c34)c2n1	16.4 µM	19.8 µM	22.3 µM	
COc1ccccc1N1CCN(CCCOc2cccc3[nH]c4ccccc4c23)CC1	13.7 µM	11.4 µM	10.8 µM	
O[C@@H](CNCc1ccc(-c2ccccc2)cc1)COc1cccc2[nH]c3ccccc3c12	2.69 µM	4.99 µM	5.22 µM	
c1ccc(N2CCN(CCCOc3cccc4[nH]c5ccccc5c34)CC2)nc1	11.5 µM	15.5 µM	13.9 µM	
c1ccc(-c2ccc(CNCCCOc3cccc4[nH]c5ccccc5c34)cc2)cc1	4.28 µM	4.39 µM	6.59 µM	
CC(C)NCC(O)COc1cccc2ccccc12 (stereo unspecified)				inhibition [4]: Active
COc1cc2c(c(OC)c1OC)-c1ccc(OC)c(=O)cc1[C@@H](NC(C)=O)CC2				Activity [5]: Active
COc1ccccc1OCCNCC(O)COc1cccc2ccccc12 (racemic)	10.1 µM	13.5 µM	18.9 µM	
COc1ccccc1N1CCN(CC(O)COc2cccc3[nH]c4ccccc4c23)CC1 (racemic)	13.6 µM	14.1 µM	13.9 µM	
OC(COc1cccc2[nH]c3ccccc3c12)CN1CCN(c2ccccc2)CC1 (racemic)	17 µM	18.5 µM	16.3 µM	
CC(C)NCC(O)COc1ccc(-c2ccccc2)cc1 (racemic)	12 µM	11.9 µM	11 µM	
OC(CNc1ccc(-c2ccccc2)cc1)COc1cccc2[nH]c3ccccc3c12 (racemic)	13.9 µM	12.5 µM	13.5 µM	
COc1ccccc1OCCNCC(O)COc1ccc2ccccc2c1 (racemic)	18.5 µM	19.7 µM	21.1 µM	

SMILES	IC50 [1]	IC50 [2]	IC50 [3]	other results
OC(COc1cccc2[nH]c3ccccc3c12)CN1CCN(c2ccccn2)CC1 (racemic)	26.1 µM	24.7 µM	31.8 µM	
OC(CNCc1ccc(-c2ccccc2)cc1)COc1cccc2[nH]c3ccccc3c12 (racemic)	3.14 µM	3.8 µM	5.56 µM	Activity [6]: Active; Ratio IC50 [7]: 15; Ratio IC50 [8]: 15; Ratio IC50 [9]: 15
OC(COc1ccc(-c2ccccc2)cc1)CN1CCN(c2ccccn2)CC1 (racemic)	21.2 µM	25 µM	28.2 µM	
OC(COc1ccc(-c2ccccc2)cc1)CN1CCN(c2ccccc2)CC1 (racemic)	12.2 µM	15.3 µM	14.3 µM	
COc1ccccc1OCCNCC(O)COc1ccc(-c2ccccc2)cc1 (racemic)	5.86 µM	6.01 µM	8.37 µM	
OC(CNCc1ccc(-c2ccccc2)cc1)COc1cccc(Nc2ccccc2)c1 (racemic)	3.7 µM	3.3 µM	1.98 µM	Activity [10]: Dose-dependent effect; inhibition (INH) [11]: 100%; Activity [6]: Active; Activity [12]: Dose-dependent effect; inhibition [13]: Active
Cc1ccc2cccc(NCC(O)COc3cccc4[nH]c5ccccc5c34)c2n1 (racemic)	14.5 µM	14.2 µM	14.1 µM	
CC(C)NCC(O)COc1ccc(CC(N)=O)cc1 (stereo unspecified) [ATENOLOL]	> 100 µM	> 100 µM	> 100 µM	inhibition at 100 µM [14]: 5.2%; inhibition at 100 µM [15]: 6.9%; inhibition at 100 µM [16]: 8.6%
CC(C)NCC(O)COc1ccc(COCCOC(C)C)cc1 (stereo unspecified) [BISOPROLOL]	> 100 µM	> 100 µM	> 100 µM	inhibition at 100 µM [14]: 14.8%; inhibition at 100 µM [15]: 6.4%; inhibition at 100 µM [16]: 28.3%
CC(C)NCC(O)COc1cccc2[nH]c3ccccc3c12 (stereo unspecified) [CARAZOLOL]	33.7 µM	31.3 µM	35.4 µM	
COc1ccccc1OCCNCC(O)COc1cccc2[nH]c3ccccc3c12 (stereo unspecified) [CARVEDILOL]	13.7 µM	15.6 µM	13 µM	inhibition [4]: Active
COC(=O)CCc1ccc(OCC(O)CNC(C)C)cc1 (stereo unspecified) [ESMOLOL]	> 100 µM	> 100 µM	> 100 µM	inhibition at 100 µM [14]: 31.4%; inhibition at 100 µM [15]: 25.8%; inhibition at 100 µM [16]: 22.8%
CC(CCc1ccccc1)NCC(O)c1ccc(O)c(C(N)=O)c1 (stereo unspecified) [LABETALOL]	> 100 µM	> 100 µM	> 100 µM	inhibition at 100 µM [14]: 36.2%; inhibition at 100 µM [15]: 35.6%; inhibition at 100 µM [16]: 38.1%
COCCc1ccc(OCC(O)CNC(C)C)cc1 (stereo unspecified) [METOPROLOL]	> 100 µM	> 100 µM	> 100 µM	inhibition at 100 µM [14]: 38.8%; inhibition at 100 µM [15]: 30%; inhibition at 100 µM [16]: 26.3%
CC(C)NCC(O)c1ccc(NS(C)(=O)=O)cc1 (stereo unspecified) [SOTALOL]	> 100 µM	> 100 µM	> 100 µM	inhibition at 100 µM [14]: 2.1%; inhibition at 100 µM [15]: 7.4%; inhibition at 100 µM [16]: 15.2%
CC(C)(C)NC[C@H](O)COc1nsnc1N1CCOCC1 [TIMOLOL]	> 100 µM	> 100 µM	> 100 µM	inhibition at 100 µM [14]: 33.3%; inhibition at 100 µM [15]: 18.6%; inhibition at 100 µM [16]: 22.7%
